Laboratory results as given in patent publication US10711004B2 (Genentech, Inc., priority 2018, dated 2020).
Like-named read-outs stand apart in the source and are kept apart here.

Biological target: human TRPA1 channel (Homo sapiens (Human), UniProt O75762)
Assay: hTRPA1 CHO Ca2+ FLIPR Tetra assay, block of cinnamaldehyde induced calcium influx
Assay type: cell-based
Conditions: CHO cells expressing TRPA1, Hill coefficient fixed to 1.5
Method in brief: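 Calcium-dye-loaded TRPA1-expressing CHO cells in HBSS/20 mM HEPES pH 7.4, 0.02% BSA were preincubated with compound for 10 or 90 min at room temperature. Calcium influx evoked by roughly an EC50 concentration of cinnamaldehyde was then read on FLIPR Tetra; IC50 came from curve fits with a fixed Hill coefficient.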

[1] = read-out: hTRPA1 IC50 (10 min), compounds incubated 10 minutes at room temperature before cinnamaldehyde agonist
[2] = read-out: hTRPA1 IC50 (90 min), compounds incubated 90 minutes at room temperature before cinnamaldehyde agonist
[3] = compounds incubated 90 minutes at room temperature before cinnamaldehyde agonist

Chain of human TRPA1 channel (O75762 whole entry): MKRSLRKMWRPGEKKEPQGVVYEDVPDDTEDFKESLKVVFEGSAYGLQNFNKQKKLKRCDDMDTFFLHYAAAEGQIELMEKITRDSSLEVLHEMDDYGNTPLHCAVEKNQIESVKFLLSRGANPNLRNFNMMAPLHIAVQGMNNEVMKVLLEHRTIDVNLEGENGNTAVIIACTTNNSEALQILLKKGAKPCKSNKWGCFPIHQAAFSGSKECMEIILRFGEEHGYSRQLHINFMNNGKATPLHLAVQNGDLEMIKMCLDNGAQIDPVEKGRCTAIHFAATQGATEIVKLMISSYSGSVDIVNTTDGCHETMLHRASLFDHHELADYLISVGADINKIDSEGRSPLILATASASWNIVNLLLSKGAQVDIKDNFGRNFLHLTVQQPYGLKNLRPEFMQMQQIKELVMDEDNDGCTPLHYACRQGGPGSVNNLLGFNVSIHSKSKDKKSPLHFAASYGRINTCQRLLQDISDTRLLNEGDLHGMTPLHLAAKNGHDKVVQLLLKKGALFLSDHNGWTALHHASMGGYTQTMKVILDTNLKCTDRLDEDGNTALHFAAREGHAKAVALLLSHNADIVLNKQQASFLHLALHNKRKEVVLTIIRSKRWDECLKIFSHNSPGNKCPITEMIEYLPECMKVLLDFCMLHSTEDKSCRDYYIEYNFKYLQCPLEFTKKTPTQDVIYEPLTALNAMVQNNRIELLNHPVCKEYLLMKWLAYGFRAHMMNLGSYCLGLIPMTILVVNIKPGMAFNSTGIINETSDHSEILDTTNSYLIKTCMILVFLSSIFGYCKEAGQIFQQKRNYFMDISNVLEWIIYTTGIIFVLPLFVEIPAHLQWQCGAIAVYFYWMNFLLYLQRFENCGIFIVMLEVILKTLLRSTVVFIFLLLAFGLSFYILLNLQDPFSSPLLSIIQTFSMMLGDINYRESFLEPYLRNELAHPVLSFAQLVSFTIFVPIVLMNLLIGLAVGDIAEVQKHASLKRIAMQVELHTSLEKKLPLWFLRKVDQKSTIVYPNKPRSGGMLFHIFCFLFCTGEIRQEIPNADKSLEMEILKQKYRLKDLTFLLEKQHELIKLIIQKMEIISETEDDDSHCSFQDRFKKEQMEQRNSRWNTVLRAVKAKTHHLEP

Row | IC50 [1] | IC50 [2] | IC50 (compounds incubated 10 minutes at room temperature before cinnamaldehyde agonist) | IC50 [3] | SMILES
1 | 37.1 nM | 32 nM | – | – | Cn1cnc2ncn(Cc3nc([C@H]4[C@@H]5CN(c6cc(Cl)cc(C#N)c6)C[C@@H]54)no3)c(=O)c21 [Example Compound 193, 3-chloro-5-((1R,5S,6r)-6-(5-((7-methyl-6-oxo-6,7-dihydro-1H-purin-1-yl)methyl)-1,2,4-oxadiazol-3-yl)-3-azabicyclo[3.1.0]hexan-3-yl)benzonitrile]
2 | 20.1 nM | 15 nM | – | – | O=c1c2cccnc2ncn1Cc1nc([C@H]2[C@@H]3CN(c4ccccc4)C[C@@H]32)no1 [Example Compound 194, 3-((3-((1R,5S,6r)-3-phenyl-3-azabicyclo[3.1.0]hexan-6-yl)-1,2,4-oxadiazol-5-yl)methyl)pyrido[2,3-d]pyrimidin-4(3H)-one]
3 | 99.4 nM | 110 nM | – | – | O=c1c2ccncc2ncn1Cc1nc([C@H]2[C@@H]3CN(c4ccccc4)C[C@@H]32)no1 [Example Compound 195, 3-((3-((1R,5S,6r)-3-phenyl-3-azabicyclo[3.1.0]hexan-6-yl)-1,2,4-oxadiazol-5-yl)methyl)pyrido[3,4-d]pyrimidin-4(3H)-one]
4 | 13 nM | 30 nM | – | – | Cc1ccnc2ncn(Cc3nc([C@H]4C[C@](F)(c5ccc(F)cc5)C4)no3)c(=O)c12 [Example Compound 196, 3-((3-((1s,3s)-3-fluoro-3-(4-fluorophenyl)cyclobutyl)-1,2,4-oxadiazol-5-yl)methyl)-5-methylpyrido[2,3-d]pyrimidin-4(3H)-one]
5 | 66.9 nM | – | – | – | O=c1c2cccnc2ncn1Cc1nc([C@H]2C[C@](F)(c3cccc(F)c3)C2)no1 [Example Compound 197, 3-((3-((1s,3s)-3-fluoro-3-(3-fluorophenyl)cyclobutyl)-1,2,4-oxadiazol-5-yl)methyl)pyrido[2,3-d]pyrimidin-4(3H)-one]
6 | 58.7 nM | – | – | – | O=c1c2cccnc2ncn1Cc1nc([C@H]2C[C@](F)(c3cccc(Cl)c3)C2)no1 [Example Compound 198, 3-((3-((1s,3s)-3-(3-chlorophenyl)-3-fluorocyclobutyl)-1,2,4-oxadiazol-5-yl)methyl)pyrido[2,3-d]pyrimidin-4(3H)-one]
7 | 26.2 nM | 22 nM | – | – | Cn1cnc2ncn(Cc3nc([C@H]4[C@@H]5CN(c6cccc(-c7cnco7)c6)C[C@@H]54)no3)c(=O)c21 [Example Compound 199, 7-methyl-1-((3-((1R,5S,6r)-3-(3-(oxazol-5-yl)phenyl)-3-azabicyclo[3.1.0]hexan-6-yl)-1,2,4-oxadiazol-5-yl)methyl)-1,7-dihydro-6H-purin-6-one]
8 | 38.4 nM | 17 nM | – | – | Cn1cc(-c2cccc(N3C[C@@H]4[C@H](C3)[C@H]4c3noc(Cn4cnc5ncn(C)c5c4=O)n3)c2)cn1 [Example Compound 200, 7-methyl-1-((3-((1R,5S,6r)-3-(3-(1-methyl-1H-pyrazol-4-yl)phenyl)-3-azabicyclo[3.1.0]hexan-6-yl)-1,2,4-oxadiazol-5-yl)methyl)-1,7-dihydro-6H-purin-6-one]
9 | 67 nM | 66 nM | – | – | Cn1cnc2ncn(Cc3nc([C@H]4[C@@H]5CN(c6cccc(-c7ccncc7)c6)C[C@@H]54)no3)c(=O)c21 [Example Compound 201, 7-methyl-1-((3-((1R,5S,6r)-3-(3-(pyridin-4-yl)phenyl)-3-azabicyclo[3.1.0]hexan-6-yl)-1,2,4-oxadiazol-5-yl)methyl)-1,7-dihydro-6H-purin-6-one]
10 | 50.1 nM | – | – | – | Cn1cnc2ncn(Cc3nc([C@H]4[C@@H]5CN(c6cccc(-n7cccn7)c6)C[C@@H]54)no3)c(=O)c21 [Example Compound 202, 1-((3-((1R,5S,6r)-3-(3-(1H-pyrazol-1-yl)phenyl)-3-azabicyclo[3.1.0]hexan-6-yl)-1,2,4-oxadiazol-5-yl)methyl)-7-methyl-1,7-dihydro-6H-purin-6-one]
11 | 46.3 nM | 78 nM | – | – | Cn1cnc2ncn(Cc3nc([C@H]4[C@@H]5CN(c6cccc(-c7cccnc7)c6)C[C@@H]54)no3)c(=O)c21 [Example Compound 203, 7-methyl-1-((3-((1R,5S,6r)-3-(3-(pyridin-3-yl)phenyl)-3-azabicyclo[3.1.0]hexan-6-yl)-1,2,4-oxadiazol-5-yl)methyl)-1,7-dihydro-6H-purin-6-one]
12 | 496 nM | 86 nM | – | – | Cn1cnc2ncn(Cc3nc([C@H]4[C@@H]5CN(c6ccc(Cl)cn6)C[C@@H]54)no3)c(=O)c21 [Example Compound 205, 1-((3-((1R,5S,6r)-3-(5-chloropyridin-2-yl)-3-azabicyclo[3.1.0]hexan-6-yl)-1,2,4-oxadiazol-5-yl)methyl)-7-methyl-1,7-dihydro-6H-purin-6-one]
13 | 313 nM | – | – | – | Cn1cnc2ncn(Cc3nc([C@H]4C[C@](F)(c5ccc(F)cc5)C4)no3)c(=O)c21 [Example Compound 206, 1-((3-((1s,3s)-3-fluoro-3-(4-fluorophenyl)cyclobutyl)-1,2,4-oxadiazol-5-yl)methyl)-7-methyl-1,7-dihydro-6H-purin-6-one]
14 | 95 nM | – | – | – | O=c1c2cccnc2ncn1Cc1nc([C@H]2C[C@](F)(c3ccc(F)cc3)C2)no1 [Example Compound 207, 3-((3-((1s,3s)-3-fluoro-3-(4-fluorophenyl)cyclobutyl)-1,2,4-oxadiazol-5-yl)methyl)pyrido[2,3-d]pyrimidin-4(3H)-one]
15 | 78.5 nM | – | – | – | O=c1c2cccnc2ncn1Cc1nc([C@H]2C[C@H](c3ccc(Cl)cc3)C2)no1 [Example Compound 208, 3-((3-((1r,3r)-3-(4-chlorophenyl)cyclobutyl)-1,2,4-oxadiazol-5-yl)methyl)pyrido[2,3-d]pyrimidin-4(3H)-one]
16 | 886 nM | – | – | – | Cn1cnc2ncn(Cc3nc([C@H]4C[C@H](c5cc(Cl)ccc5F)C4)no3)c(=O)c21 [Example Compound 209, 1-((3-((1r,3r)-3-(5-chloro-2-fluorophenyl)cyclobutyl)-1,2,4-oxadiazol-5-yl)methyl)-7-methyl-1,7-dihydro-6H-purin-6-one]
17 | 15.1 nM | – | – | – | Cc1ccnc2ncn(Cc3nc([C@H]4C[C@](F)(c5cccc(Cl)c5)C4)no3)c(=O)c12 [Example Compound 210, 3-((3-((1s,3s)-3-(3-chlorophenyl)-3-fluorocyclobutyl)-1,2,4-oxadiazol-5-yl)methyl)-5-methylpyrido[2,3-d]pyrimidin-4(3H)-one]
18 | 63.8 nM | 10 nM | – | – | Cn1cnc2ncn(Cc3nc([C@H]4[C@@H]5CN(c6ccc7ncsc7c6)C[C@@H]54)no3)c(=O)c21 [Example Compound 211, 1-((3-((1R,5S,6r)-3-(benzo[d]thiazol-6-yl)-3-azabicyclo[3.1.0]hexan-6-yl)-1,2,4-oxadiazol-5-yl)methyl)-7-methyl-1,7-dihydro-6H-purin-6-one]
19 | 84.7 nM | 25 nM | – | – | Cn1cnc2ncn(Cc3nc([C@H]4[C@@H]5CN(c6cc(Cl)ccn6)C[C@@H]54)no3)c(=O)c21 [Example Compound 212, 1-((3-((1R,5S,6r)-3-(4-chloropyridin-2-yl)-3-azabicyclo[3.1.0]hexan-6-yl)-1,2,4-oxadiazol-5-yl)methyl)-7-methyl-1,7-dihydro-6H-purin-6-one]
20 | 6.17 nM | 5.1 nM | 15.4 nM | 8.5 nM | O=c1c2cccnc2cnn1Cc1nc([C@H]2[C@@H]3CN(c4ccccc4)C[C@@H]32)no1 [Example Compound 213, 6-((3-((1R,5S,6r)-3-phenyl-3-azabicyclo[3.1.0]hexan-6-yl)-1,2,4-oxadiazol-5-yl)methyl)pyrido[2,3-d]pyridazin-5(6H)-one]
21 | 2.88 nM | – | – | – | O=c1c2cccnc2cnn1Cc1nc([C@H]2[C@@H]3CN(c4cccc(Cl)c4)C[C@@H]32)no1 [Example Compound 214, 6-((3-((1R,5S,6r)-3-(3-chlorophenyl)-3-azabicyclo[3.1.0]hexan-6-yl)-1,2,4-oxadiazol-5-yl)methyl)pyrido[2,3-d]pyridazin-5(6H)-one]
22 | 56.5 nM | – | – | – | Cn1c(=O)c2c(ncn2Cc2nc([C@H]3[C@@H]4CN(c5cccc(Cl)c5)C[C@@H]43)no2)n(C)c1=O [Example Compound 215, 7-((3-((1R,5S,6r)-3-(3-chlorophenyl)-3-azabicyclo[3.1.0]hexan-6-yl)-1,2,4-oxadiazol-5-yl)methyl)-1,3-dimethyl-3,7-dihydro-1H-purine-2,6-dione]
23 | 13.8 nM | – | – | 13 nM | O=c1c2cccnc2ncn1Cc1nc([C@H]2[C@@H]3CN(c4cccc(Cl)c4)C[C@@H]32)no1 [Example Compound 216, 3-((3-((1R,5S,6r)-3-(3-chlorophenyl)-3-azabicyclo[3.1.0]hexan-6-yl)-1,2,4-oxadiazol-5-yl)methyl)pyrido[2,3-d]pyrimidin-4(3H)-one]
24 | 38 nM | – | – | – | Cn1cnc2ncn(Cc3nc([C@H]4C[C@H](Oc5cccc(Cl)c5)C4)no3)c(=O)c21 [Example Compound 217, 1-((3-((1r,3r)-3-(3-chlorophenoxy)cyclobutyl)-1,2,4-oxadiazol-5-yl)methyl)-7-methyl-1,7-dihydro-6H-purin-6-one]
25 | 29.3 nM | 31 nM | – | – | Cn1cnc2ncn(Cc3nc([C@H]4[C@@H]5CN(c6cc(Cl)c(F)cc6F)C[C@@H]54)no3)c(=O)c21 [Example Compound 219, 1-((3-((1R,5S,6r)-3-(5-chloro-2,4-difluorophenyl)-3-azabicyclo[3.1.0]hexan-6-yl)-1,2,4-oxadiazol-5-yl)methyl)-7-methyl-1,7-dihydro-6H-purin-6-one]

Row | SMILES | IC50 [1] | IC50 [2] | IC50 (compounds incubated 10 minutes at room temperature before cinnamaldehyde agonist) | IC50 [3]
26 | Cn1cnc2ncn(Cc3nc([C@H]4C[C@H](Oc5ccc(Cl)cc5)C4)no3)c(=O)c21 [Example Compound 218, 1-((3-((1r,3r)-3-(4-chlorophenoxy)cyclobutyl)-1,2,4-oxadiazol-5-yl)methyl)-7-methyl-1,7-dihydro-6H-purin-6-one] | 24.9 nM | 13 nM | – | –
